# Biological target: T1, human neutrophil elastase (Homo sapiens, UniProt P08246)
# T1 construct: purchased Elastin Products Company
# T1 sequence (P08246 30-267): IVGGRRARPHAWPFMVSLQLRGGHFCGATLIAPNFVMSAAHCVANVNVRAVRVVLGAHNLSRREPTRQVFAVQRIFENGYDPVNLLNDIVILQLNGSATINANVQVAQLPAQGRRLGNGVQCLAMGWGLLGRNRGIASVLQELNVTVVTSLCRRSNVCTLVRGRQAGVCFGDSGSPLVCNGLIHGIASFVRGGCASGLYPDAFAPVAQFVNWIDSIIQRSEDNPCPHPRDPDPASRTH
# Assay: Inhibitory action 2 against human neutrophil elastase (Test Example 2; fluorogenic substrate MeOSuc-AAPV-AMC, buffer with 400 mM NaCl, 0.2 mg/ml BSA)
# Assay type: biochemical
# Settings: 37° C., read-out: IC50 value (compound concentration required for 50% inhibition of human neutrophil elastase)
# Description: Assay buffer (0.4 unit/ml HNE (human neutrophil elastase, available from Elastin Products Company), 200 mM HEPES [N-(2-hydroxyethyl)piperazine-N′-(2-ethanesulfonic acid)], pH 7.5, 400 mM NaCl, 0.2 mg/ml BSA (bovine serum albumin)) 100 μl, water for injection 20 μl and 1% DMSO (dimethyl sulfoxide) solution of the present compound 20 μl were mixed in a 96 well plate and the mixed solutions were pre-incubated at 37° C. for five minutes. After pre-incubation, MeOSuc-AAPV-AMC (methoxysuccinyl-alanyl-alanyl-prolyl-valyl-aminomethyl cumaride (available from Sigma Aldrich Corp.) solution as fluorogenic substrate (which was dissolved in 10% DMSO solution so as to adjust to 0.5 mM) 40 μl was added to the above-prepared mixed solution so as to initiate the reaction, and the mixture was incubated at 37° C. for five minutes. The fluorescence intensity of AMC was measured at an excitation wavelength of 380 nm and a fluorescence wavelength of 460 nm and the inhibition ratio was determined.
row,SMILES,IC50 [nM]
1,"Cc1c(-c2c(S(C)(=O)=O)cnn2-c2ccc(C#N)cc2)c(=O)n(C(C)C)c(=O)n1-c1cccc(C(F)(F)F)c1 (racemic) [Example 276, (±)-4-(5-(3-Isopropyl-6-methyl-2,4-dioxo-1-(3-trifluoromethylphenyl)-1,2,3,4-tetrahydropyrimidin-5-yl-4-(methylsulfonyl)-1H-pyrazol-1-yl)benzonitrile]",12
2,"Cc1c(-c2c(S(N)(=O)=O)cnn2-c2ccc(C#N)cc2)c(=O)n(C)c(=O)n1-c1cccc(C(F)(F)F)c1 (single isomer, unassigned) [Example 209, (+)-1-(4-cyanophenyl)-5-(3,6-dimethyl-2,4-dioxo-1-(3-trifluoromethylphenyl)-1,2,3,4-tetrahydropyrimidin-5-yl)-1H-pyrazole-4-sulfonamide]",9.3
3,"Cc1c(-c2c(S(C)(=O)=O)cnn2-c2ccc(C#N)cc2)c(=O)n(C)c(=O)n1-c1cccc(C(F)(F)F)c1 (single isomer, unassigned) [Example 267]",11.6
4,"CCn1c(=O)c(-c2ccnn2-c2ccc(C#N)cc2)c(C)n(-c2cccc(C(F)(F)F)c2)c1=O [Example 41, 4-(5-(3-ethyl-6-methyl-2,4-dioxo-1-(3-(trifluoromethyl)phenyl)-1,2,3,4-tetrahydropyrimidin-5-yl)-1H-pyrazol-1-yl)benzonitrile]",12.6
5,"Cc1c(-c2ccnn2-c2ccc(C#N)cc2)c(=O)n(C(C)C)c(=O)n1-c1cccc(C(F)(F)F)c1 [Example 42, 4-(5-(3-isopropyl-6-methyl-2,4-dioxo-1-(3-(trifluoromethyl)phenyl)-1,2,3,4-tetrahydropyrimidin-5-yl)-1H-pyrazol-1-yl)benzonitrile]",3.5
6,"CCc1c(-c2ccnn2-c2ccc(C#N)cc2)c(=O)n(C)c(=O)n1-c1cccc(C(F)(F)F)c1 [Example 50, 4-(5-(6-ethyl-3-methyl-2,4-dioxo-1-(3-(trifluoromethyl)phenyl)-1,2,3,4-tetrahydropyrimidin-5-yl)-1H-pyrazol-1-yl)benzonitrile]",13.7
7,"Cc1c(-c2ccnn2-c2ccc(C#N)cc2)c(=O)n([C@H](C)CO)c(=O)n1-c1cccc(C(F)(F)F)c1 [Example 55, (R)-4-(5-(3-(1-hydroxypropan-2-yl)-6-methyl-2,4-dioxo-1-(3-(trifluoromethyl)phenyl)-1,2,3,4-tetrahydropyrimidin-5-yl)-1H-pyrazol-1-yl)benzonitrile]",4.9
8,"Cc1c(-n2cnnc2-c2ccc(C#N)cc2)c(=O)n(C(C)C)c(=O)n1-c1cccc(C(F)(F)F)c1 [Example 65, 4-(4-(3-Isopropyl-6-methyl-2,4-dioxo-1-(3-(trifluoromethyl)phenyl)-1,2,3,4-tetrahydropyrimidin-5-yl)-4H-1,2,4-triazol-3-yl)benzonitrile]",5.5
9,N#Cc1ccc(-n2nccc2-c2cn(-c3cccc(C(F)(F)F)c3)c(=O)n([C@@H]3CNC(=O)C3)c2=O)cc1 [Example 90],353
10,Cc1c(-c2c(C(=O)N(C)C)cnn2-c2ccc(C#N)cc2)c(=O)n(C(C)C)c(=O)n1-c1cccc(C(F)(F)F)c1 [Example 153],5.4
11,CCn1c(=O)c(-c2c(C(=O)N3CC(O)C3)cnn2-c2ccc(C#N)cc2)c(C)n(-c2cccc(C(F)(F)F)c2)c1=O [Example 156],10
12,CCn1c(=O)c(-c2c(C(=O)N(C)CCO)cnn2-c2ccc(C#N)cc2)c(C)n(-c2cccc(C(F)(F)F)c2)c1=O [Example 176],11.4
13,COCCNC(=O)c1cnn(-c2ccc(C#N)cc2)c1-c1c(C)n(-c2cccc(C(F)(F)F)c2)c(=O)n(C)c1=O [Example 178],13.5
14,Cc1c(-c2c(C(=O)NC3CC3)cnn2-c2ccc(C#N)cc2)c(=O)n(C)c(=O)n1-c1cccc(C(F)(F)F)c1 [Example 179],8.7
15,"Cc1c(-c2c(C(=O)OCCCCN(C)C)cnn2-c2ccc(C#N)cc2)c(=O)n(C)c(=O)n1-c1cccc(C(F)(F)F)c1 [Example 187, 4-(dimethylamino)butyl 1-(4-cyanophenyl)-5-(3,6-dimethyl-2,4-dioxo-1-(3-trifluoromethylphenyl)-1,2,3,4-tetrahydropyrimidin-5-yl)-1H-pyrazole-4-carboxylate]",19.4

# Reference: patent US9040516B2, “Uracil derivative and use thereof for medical purposes” (SUMITOMO DAINIPPON PHARMA CO., LTD., priority 2011, dated 2015)
